Test results taken from patent US12612410B2 (CHILDREN'S HOSPITAL MEDICAL CENTER, priority 2020, dated 2026).

Legend:
MOLM14 D835Y cells = test: MOLM14 D835Y cell viability assay (Cell Titer Glo); type: cell-based
Outline: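 MOLM14 cells carrying FLT3 D835Y or F691L were seeded at 1000 cells/well in RPMI-1640 with 20% FBS and dosed at 22 concentrations, 1:2 dilutions from 10 μM. Viability after 48 h by Cell Titer Glo luminescence; 2.3 μM bortezomib as cytotoxic control.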

IRAK1 = target: T1, IRAK1 (Homo sapiens, UniProt P51617); test: RBC HotSpot Kinase Assay, IRAK1; type: biochemical; conditions: isolated kinase, 33P-ATP
T1 construct: purchased Reaction Biology (RBC), HotSpot kinase assay
Outline: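 Read-out was P81 filter binding of 33P incorporated into substrate by isolated kinase during a 2 h room-temperature reaction. Compound was preincubated with enzyme for 20 min at room temperature; buffer was Hepes pH 7.5 with Mg2+, EGTA, Brij35 and 1% DMSO.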

NF-κB [1] = test: NF-kB SEAP reporter assay in THP-1-Blue NF-κB cells, Pam3CSK4 stimulation; type: cell-based; conditions: Pam3CSK4 1 ng/mL, read-out: NF-κB Pam3SCK4 IC50
Description: (§1) THP-1-Blue NF-xB cells (InvivoGen) carrying a stable integrated NF-κB-inducible secreted embryonic alkaline phosphatase (SEAP) reporter construct were plated at a concentration of 1×10^5 cells per well. The cells were stimulated with Pam3CSK4 (1 ng/mL) or hIL1B (1 ng/mL). After 10-20 minutes, the cells were then treated with vehicle (DMSO) or serial dilutions of the test compounds (10 doses tested for each test compound, with a 1:10 dilution series starting at 1 μM or 3 μM) with a final volume of 200 μL for 24 hours at 37° C. After 24 hours, the cells were centrifuged and 20 μL supernatant was incubated with 180 μL QUANTI-Blue reagent at 37° C. for 30-60 minutes. The levels of NF-κB-induced was measured in a microplate reader at 620 nm.

NF-κB [2] = test: NF-kB SEAP reporter assay in THP-1-Blue NF-κB cells, hIL1B stimulation; type: cell-based; conditions: hIL1B 1 ng/mL, read-out: NF-κB IL1B IC50
Description: as §1

T1 sequence (P51617 whole entry): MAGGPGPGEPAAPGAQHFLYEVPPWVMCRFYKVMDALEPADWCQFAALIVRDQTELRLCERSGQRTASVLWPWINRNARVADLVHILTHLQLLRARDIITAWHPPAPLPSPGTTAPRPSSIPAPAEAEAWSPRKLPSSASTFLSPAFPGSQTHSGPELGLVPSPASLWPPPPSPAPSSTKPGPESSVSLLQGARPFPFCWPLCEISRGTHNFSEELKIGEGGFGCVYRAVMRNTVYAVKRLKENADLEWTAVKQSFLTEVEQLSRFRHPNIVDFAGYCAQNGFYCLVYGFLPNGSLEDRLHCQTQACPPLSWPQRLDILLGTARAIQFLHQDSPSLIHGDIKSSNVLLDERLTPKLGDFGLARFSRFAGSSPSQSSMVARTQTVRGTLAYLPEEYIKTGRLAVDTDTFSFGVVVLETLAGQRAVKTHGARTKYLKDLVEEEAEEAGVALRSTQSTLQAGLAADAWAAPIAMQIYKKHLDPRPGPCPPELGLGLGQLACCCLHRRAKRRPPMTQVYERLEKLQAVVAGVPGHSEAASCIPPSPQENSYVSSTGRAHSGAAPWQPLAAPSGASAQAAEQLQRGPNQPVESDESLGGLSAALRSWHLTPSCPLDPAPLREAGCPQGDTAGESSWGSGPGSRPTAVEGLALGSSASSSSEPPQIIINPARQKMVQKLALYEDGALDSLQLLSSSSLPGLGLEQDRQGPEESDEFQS

## CC(O)(c1cn2c(-c3cccc(N[C@H]4CNC[C@@H]4F)n3)cnc2cn1)C(F)(F)F (single isomer, unassigned) [Compound 77]
MOLM14 D835Y cells; 48 hours
  IC50: 106 nM
IRAK1
  IC50: 237 nM

## CC(O)(c1cn2c(-c3cccc(N[C@H]4CNC[C@@H]4F)n3)cnc2cn1)C(F)(F)F (single isomer, unassigned) [Compound 78]
MOLM14 D835Y cells; 48 hours
  IC50: 47 nM
IRAK1
  IC50: 66 nM

## CC(O)(c1cn2c(-c3cccc(N[C@H]4CNCC[C@@H]4F)n3)cnc2cn1)C(F)(F)F (single isomer, unassigned) [Compound 80]
MOLM14 D835Y cells; Homo sapiens, MOLM-14, 48 h
  IC50: 68 nM
IRAK1
  IC50: 64 nM
NF-κB [1]; 24 hours
  IC50: 44 nM
NF-κB [2]; 24 hours
  IC50: 124 nM

## CC(O)(c1cn2c(-c3cccc(N[C@@H]4CCCNC4)n3)cnc2cn1)C(F)(F)F (single isomer, unassigned) [Compound 81]
MOLM14 D835Y cells; Homo sapiens, MOLM-14, 48 h
  IC50: 30 nM
IRAK1
  IC50: 31 nM
NF-κB [1]; 24 h
  IC50: 24 nM
NF-κB [2]; 24 h
  IC50: 72 nM

## CC(O)(c1cn2c(-c3cccc(N[C@H]4CNCC[C@@H]4F)n3)cnc2cn1)C(F)(F)F (single isomer, unassigned) [Compound 82]
MOLM14 D835Y cells; 48 hours
  IC50: 34 nM
IRAK1
  IC50: 16 nM
NF-κB [1]; 24 hours
  IC50: 12 nM
NF-κB [2]; 24 hours
  IC50: 30 nM

## CC1(c2cn3c(-c4cccc(N[C@H]5CNC[C@@H]5F)n4)cnc3cn2)CC1 [Compound 1, N-((3S,4S)-4-fluoropyrrolidin-3-yl)-6-(6-(1-methylcyclopropyl)imidazo[1,2-a]pyrazin-3-yl)pyridin-2-amine]
MOLM14 D835Y cells; Homo sapiens, MOLM-14, 48 h
  IC50: 18 nM
IRAK1
  IC50: 63 nM
NF-κB [1]; 24 h
  IC50: 6 nM
NF-κB [2]; 24 h
  IC50: 9 nM

## CC1(c2cn3c(-c4cccc(N[C@@H]5CCNC5)n4)cnc3cn2)CC1 [Compound 3, (R)-6-(6-(1-methylcyclopropyl)imidazo[1,2-a]pyrazin-3-yl)-N-(pyrrolidin-3-yl)pyridin-2-amine]
MOLM14 D835Y cells; Homo sapiens, MOLM-14, 48 h
  IC50: 6 nM
IRAK1
  IC50: 88 nM

## CC1(c2cn3c(-c4cccc(N[C@H]5CNCC56CC6)n4)cnc3cn2)CC1 [Compound 5, (R)-N-(6-(6-(1-methylcyclopropyl)imidazo[1,2-a]pyrazin-3-yl)pyridin-2-yl)-5-azaspiro[2.4]heptan-7-amine]
MOLM14 D835Y cells; Homo sapiens, MOLM-14, 48 h
  IC50: 2 nM
IRAK1
  IC50: 114 nM

## FC(F)(F)C1(c2cn3c(-c4cccc(N[C@@H]5CCNC5)n4)cnc3cn2)CC1 [Compound 10, (R)-N-(pyrrolidin-3-yl)-6-(6-(1-(trifluoromethyl)cyclopropyl)imidazo[1,2-a]pyrazin-3-yl)pyridin-2-amine]
MOLM14 D835Y cells; Homo sapiens, MOLM-14, 48 h
  IC50: 14 nM
IRAK1
  IC50: 155 nM

## FC(F)c1cn2c(-c3cccc(N[C@H]4CNC[C@@H]4F)n3)cnc2cn1 [Compound 16, 6-(6-(difluoromethyl)imidazo[1,2-a]pyrazin-3-yl)-N-((3S,4S)-4-fluoropyrrolidin-3-yl)pyridin-2-amine]
MOLM14 D835Y cells; Homo sapiens, MOLM-14, 48 h
  IC50: 21 nM
IRAK1
  IC50: 60 nM
NF-κB [1]; 24 h
  IC50: 11 nM
NF-κB [2]; 24 h
  IC50: 5 nM

## FC(F)c1cn2c(-c3cccc(N[C@H]4CNCC[C@@H]4F)n3)cnc2cn1 [Compound 25, 6-(6-(difluoromethyl)imidazo[1,2-a]pyrazin-3-yl)-N-((3S,4S)-4-fluoropiperidin-3-yl)pyridin-2-amine]
MOLM14 D835Y cells; Homo sapiens, MOLM-14, 48 h
  IC50: 9 nM
IRAK1
  IC50: 144 nM
NF-κB [1]; 24 h
  IC50: 12 nM
NF-κB [2]; 24 h
  IC50: 47 nM

## CC(C)(O)c1cn2c(-c3cccc(N[C@@H]4CCCNC4)n3)cnc2cn1 [Compound 30, (R)-2-(3-(6-(piperidin-3-ylamino)pyridin-2-yl)imidazo[1,2-a]pyrazin-6-yl)propan-2-ol]
MOLM14 D835Y cells; Homo sapiens, MOLM-14, 48 h
  IC50: 75 nM
IRAK1
  IC50: 58 nM
NF-κB [1]; 24 hours
  IC50: 28 nM
NF-κB [2]; 24 hours
  IC50: 40 nM

## CC(C)(O)c1cn2c(-c3cccc(N[C@H]4CNCC[C@@H]4F)n3)cnc2cn1 [Compound 31, 2-(3-(6-(((3S,4S)-4-fluoropiperidin-3-yl)amino)pyridin-2-yl)imidazo[1,2-a]pyrazin-6-yl)propan-2-ol]
MOLM14 D835Y cells; Homo sapiens, MOLM-14, 48 h
  IC50: 63 nM
IRAK1
  IC50: 23 nM
NF-κB [1]; 24 h
  IC50: 37 nM
NF-κB [2]; 24 h
  IC50: 44 nM

## CC(C)(O)c1cn2c(-c3nc(N[C@H]4CNC[C@@H]4F)c(F)cc3F)cnc2cn1 [Compound 33, 2-(3-(3,5-difluoro-6-(((3S,4S)-4-fluoropyrrolidin-3-yl)amino)pyridin-2-yl)imidazo[1,2-a]pyrazin-6-yl)propan-2-ol]
MOLM14 D835Y cells; Homo sapiens, MOLM-14, 48 h
  IC50: 168 nM
IRAK1
  IC50: 61 nM

## CC(C)(O)c1cn2c(-c3nc(N[C@@H]4CCCNC4)c(F)cc3F)cnc2cn1 [Compound 34, (R)-2-(3-(3,5-difluoro-6-(piperidin-3-ylamino)pyridin-2-yl)imidazo[1,2-a]pyrazin-6-yl)propan-2-ol]
MOLM14 D835Y cells; Homo sapiens, MOLM-14, 48 h
  IC50: 106 nM
IRAK1
  IC50: 47 nM

## CC(C)(O)c1cn2c(-c3nc(N[C@H]4CNCC[C@@H]4F)c(F)cc3F)cnc2cn1 [Compound 35, 2-(3-(3,5-difluoro-6-(((3S,4S)-4-fluoropiperidin-3-yl)amino)pyridin-2-yl)imidazo[1,2-a]pyrazin-6-yl)propan-2-ol]
MOLM14 D835Y cells; Homo sapiens, MOLM-14, 48 h
  IC50: 94 nM
IRAK1
  IC50: 45 nM
NF-κB [1]; 24 h
  IC50: 23 nM
NF-κB [2]; 24 h
  IC50: 88 nM

## FC(F)(F)COc1cn2c(-c3cccc(N[C@@H]4CCNC4)n3)cnc2cn1 [Compound 38, (R)-N-(pyrrolidin-3-yl)-6-(6-(2,2,2-trifluoroethoxy)imidazo[1,2-a]pyrazin-3-yl)pyridin-2-amine]
MOLM14 D835Y cells; Homo sapiens, MOLM-14, 48 h
  IC50: 23 nM
IRAK1
  IC50: 92 nM

## Cn1cc(-c2cn3c(-c4cccc(N[C@@H]5CCCNC5)n4)cnc3cn2)cn1 [Compound 43, (R)-6-(6-(1-methyl-1H-pyrazol-4-yl)imidazo[1,2-a]pyrazin-3-yl)-N-(piperidin-3-yl)pyridin-2-amine]
MOLM14 D835Y cells; Homo sapiens, MOLM-14, 48 h
  IC50: 8 nM
IRAK1
  IC50: 895 nM

## F[C@H]1CNC[C@@H]1Nc1cccc(-c2cnc3cnc(C4CC4)cn23)n1 [Compound 50, 6-(6-cyclopropylimidazo[1,2-a]pyrazin-3-yl)-N-((3S,4S)-4-fluoropyrrolidin-3-yl)pyridin-2-amine]
MOLM14 D835Y cells; Homo sapiens, MOLM-14, 48 h
  IC50: 24 nM
IRAK1
  IC50: 113 nM
NF-κB [1]; 24 h
  IC50: 9 nM
NF-κB [2]; 24 h
  IC50: 11 nM

## F[C@H]1CCNC[C@@H]1Nc1cccc(-c2cnc3cnc(C4CC4)cn23)n1 [Compound 51, 6-(6-cyclopropylimidazo[1,2-a]pyrazin-3-yl)-N-((3S,4S)-4-fluoropiperidin-3-yl)pyridin-2-amine]
MOLM14 D835Y cells; Homo sapiens, MOLM-14, 48 h
  IC50: 9 nM
IRAK1
  IC50: 80 nM
NF-κB [1]; 24 h
  IC50: 20 nM
NF-κB [2]; 24 h
  IC50: 57 nM

## Cn1cc(-c2cn3c(-c4cccc(N[C@H]5CNC[C@@H]5F)n4)cnc3cn2)cn1 [Compound 52, N-((3S,4S)-4-fluoropyrrolidin-3-yl)-6-(6-(1-methyl-1H-pyrazol-4-yl)imidazo[1,2-a]pyrazin-3-yl)pyridin-2-amine]
MOLM14 D835Y cells; Homo sapiens, MOLM-14, 48 h
  IC50: 11 nM
IRAK1
  IC50: 202 nM

## FC(F)COc1cn2c(-c3cccc(N[C@H]4CNC[C@@H]4F)n3)cnc2cn1 [Compound 58, 6-(6-(2,2-difluoroethoxy)imidazo[1,2-a]pyrazin-3-yl)-N-((3S,4S)-4-fluoropyrrolidin-3-yl)pyridin-2-amine]
MOLM14 D835Y cells; Homo sapiens, MOLM-14, 48 h
  IC50: 30 nM
IRAK1
  IC50: 117 nM

## O=S1(=O)CCCN1c1cn2c(-c3cccc(N[C@H]4CNCC[C@@H]4F)n3)cnc2cn1 [Compound 97, 2-(3-(6-(((3S,4S)-4-fluoropiperidin-3-yl)amino)pyridin-2-yl)imidazo[1,2-a]pyrazin-6-yl)isothiazolidine 1,1-dioxide]
MOLM14 D835Y cells; Homo sapiens, MOLM-14, 48 h
  IC50: 5 nM
IRAK1
  IC50: 53 nM
NF-κB [1]; 24 hours
  IC50: 83 nM
NF-κB [2]; 24 hours
  IC50: 164 nM

## O=C1CCCN1c1cn2c(-c3nc(N[C@H]4CNCC[C@@H]4F)c(F)cc3F)cnc2cn1 [Compound 107, 1-[3-[3,5-difluoro-6-[[(3S,4S)-4-fluoro-3-piperidyl]amino]-2-pyridyl]imidazo[1,2-a]pyrazin-6-yl]pyrrolidin-2-one]
MOLM14 D835Y cells; Homo sapiens, MOLM-14, 48 h
  IC50: 21 nM
IRAK1
  IC50: 130 nM
NF-κB [1]; 24 hours
  IC50: 37 nM
NF-κB [2]; 24 hours
  IC50: 357 nM

## O=C1CCCN1c1cn2c(-c3nc(N[C@@H]4CCCNC4)c(F)cc3F)cnc2cn1 [Compound 108, (R)-1-(3-(3,5-difluoro-6-(piperidin-3-ylamino)pyridin-2-yl)imidazo[1,2-a]pyrazin-6-yl)pyrrolidin-2-one]
MOLM14 D835Y cells; Homo sapiens, MOLM-14, 48 h
  IC50: 26 nM
IRAK1
  IC50: 109 nM

## CC(C)(C)c1cn2c(-c3nc(N[C@H]4CNC[C@@H]4F)c(F)cc3F)cnc2cn1 [Compound 125]
MOLM14 D835Y cells; Homo sapiens, MOLM-14, 48 h
  IC50: 163 nM
IRAK1
  IC50: 51 nM

## CC(C)(C)c1cn2c(-c3nc(N[C@@H]4CCCNC4)c(F)cc3F)cnc2cn1 [Compound 126, (R)-6-(6-(tert-butyl)imidazo[1,2-a]pyrazin-3-yl)-3,5-difluoro-N-(piperidin-3-yl)pyridin-2-amine]
MOLM14 D835Y cells; Homo sapiens, MOLM-14, 48 h
  IC50: 21 nM
IRAK1
  IC50: 80 nM

## CC(C)(C)c1cn2c(-c3nc(N[C@H]4CNCC[C@@H]4F)c(F)cc3F)cnc2cn1 [Compound 127, 6-(6-(tert-butyl)imidazo[1,2-a]pyrazin-3-yl)-3,5-difluoro-N-((3S,4S)-4-fluoropiperidin-3-yl)pyridin-2-amine]
MOLM14 D835Y cells; Homo sapiens, MOLM-14, 48 h
  IC50: 44 nM
IRAK1
  IC50: 60 nM

## CC(C)(C)c1cn2c(-c3cccc(N[C@H]4CNCC[C@@H]4F)n3)cnc2cn1 [Compound 130, 6-(6-(tert-butyl)imidazo[1,2-a]pyrazin-3-yl)-N-((3S,4S)-4-fluoropiperidin-3-yl)pyridin-2-amine]
MOLM14 D835Y cells; Homo sapiens, MOLM-14, 48 h
  IC50: 26 nM
IRAK1
  IC50: 49 nM
